Source: US7645740B2, “Peptide sequence found in Laminin 5 for treating skin impairments” (Laboratoires d'Anjou Centre National de la Recherche …, priority 2004, dated 2010)

Legend:
Assay type in all cases: cell-based, human
[1] = system: NHK-old (keratinocytes from elderly individuals); experiment: Cell adhesion of NHK-old to immobilized peptide; conditions: 0 to 5 micrograms per well, 1 hour 37° C.
Procedure: Dose-dependent cell adhesion of NHK-10 years versus NHK-71 years (A) and NHK-11 years versus NHK-60 years (B) peptides TALRIRATYHEY. The peptides were immobilized in 96-well plates at the concentrations given on the abscissa. 3.5×10^4 (A) cells and 4.3×10^4 (B) cells were deposited in each well and plates were incubated at 37° C. for 1 hour. After washing, attached cells were fixed and cell adhesion was measured as described in the methodology section (C). Cells were observed by phase contrast microscopy then photographed. Bar=50 μm.
In order to obtain keratinocytes originating from biopsies taken from young and old individuals and taken from the same anatomical site, the inventors conducted a study of facial skin biopsies. The area of the face situated behind the ears was chosen in order to study only intrinsic aging and to overcome the effects of photo-induced aging. Surgery waste from cosmetic surgery (face lifts) in older individuals and surgery waste from detached ears in young children was collected. It is essential to use biopsies collected on the same day as surgery was performed in order to quickly place the epidermal keratinocytes in culture. Cells from biopsies on elderly individuals (60, 63 and 71 years) and young individuals (8, 10 and 11 years) were used for this study. The keratinocytes were obtained by means of the technique described by Boyce and Ham, 1985. […]

NHK-old = experiment: Cell adhesion of NHK-old to peptide co-immobilized with laminin 5
Procedure: The peptide (variable quantities indicated) and laminin 5 (fixed quantity 0.2 mg) were co-immobilized in 96-well plates. 3×104 NHK-8 years and 3×104 NHK-63 years were deposited in each well and plates were incubated at 37° C. for 1 hour. After washing, attached cells were fixed and cell adhesion was measured as described in the methodology section. Cell adhesion in the presence of the peptide is given as a percentage of cell adhesion obtained with laminin 5 alone.
The effect of peptide TALRIRATYGEY (SEQ ID NO. 1) on adhesion to LN5 was verified with NHK-old (FIG. 16). NHK-young ([…]) was tested in parallel and 30,000 cells/well were used in both cases (NHK-old is always limiting as it is obtained in lower amounts). In general, the results obtained in the course of this experiment are less marked than those in the experiment presented in FIG. 14 since (1) the number of cells is lower (30,000 instead of 50,000) and (2) the peptide range tested is also smaller. […] This effect, less marked than the effect found with NHK-young, is probably linked to the decreased adhesion with age of NHK-old to peptide TALRIRATYGEY (SEQ ID NO.1) (FIG. 6).

HT1080 cells = experiment: Cell proliferation test (XTT), HT1080; conditions: HT1080, peptide 0.5% and 1%, serum-free medium, 5th hour
Procedure: HT1080 cells (A) and HBL100 cells (B) were seeded in 96-well plates at a rate of 10,000 cells per well. After 24 hours, the culture medium was removed and replaced with serum-free medium containing the peptide quantities given in the graphs and reagent XTT. The plates were then placed in the incubator at 37° C. and absorbance readings were taken at 1 h, 2 h, 3 h, 4 h and 5 h. Peptide-free controls were carried out on the same plate.
The effect of the peptide on cell proliferation was analysed with the aid of a calorimetric test (Cell Proliferation Kit XTT, Roche Diagnostics, Meylan, France) on the cells use for the cell adhesion test, i.e. HT1080, A431, HBL100 cells and normal human keratinocytes from young and elderly individuals.
The chemical reaction used in the test is based on the production of NADPH by living cells, leading to the reduction of yellow tetrazolium XTT salts to orange formazan salts. Absorbance was measured at 490 nm using an ELISA plate reader. Cells were seeded in 96-well plates at a rate of 10,000 cells per well (6 wells/condition) in KBM-2 culture medium. After 24 hours in culture at 37° C. with 5% CO2, the culture medium was removed and replaced with serum-free medium containing the peptide quantities given in the graphs and the test reagent. The plates were then placed in the incubator at 37° C. and absorbance readings were taken at 1 h, 2 h, 3 h, 4 h and 5 h. […]

In the case of “TALRIRATYGEY (Human laminin 5) [Peptide 1]”, the “cell adhesion to immobilized peptide” value [1] is reported as “triggered dose-dependent cell adhesion”, the “effect on adhesion of NHK-old to LN5 (co-immobilized)” value (NHK-old; NHK-63 years, 30,000 cells/well, laminin 5 fixed quantity 0.2 mg) is reported as “potentializing effect” and the “effect on NHK-old adhesion to LN5 compared with NHK-young” value (NHK-old; NHK-old vs NHK-young, 30,000 cells/well) is reported as “less marked”. For the same sequence, the “mean increase in cell proliferation compared to the control” value (HT1080 cells) was 8%.
